# Assay: 17O NMR on Gd(TRITA-bz-NO2)
# Assay type: physicochemical
# Conditions: for A/ħ / ER / ΔH^x / ΔS* / τR^298: from ^17O NMR data; for kex^298: water exchange rate from ^17O NMR data; for In(1/T1r), reduced longitudinal ^17O relaxation rate / In(1/T2r), reduced transverse ^17O relaxation rate / Δwr, reduced ^17O chemical shift: B = 9.4 Tesla
# From the text: The rate of water exchange, Kes, has been measured on Gd(TRITA-bz-NO2) by ^17O NMR. The numerical experimental data (reduced transverse and longitudinal ^17O relaxation rates, reduced chemical shifts) measured on a Gd(TRITA-bz-NO2) solution are shown in Table 6.
smiles,measurement,setting,value
"O=C([O-])CN1CCN(CC(=O)[O-])CCN(CC(=O)[O-])CCN(CC(=O)[O-])CC1.[Gd+3] [Gd(DOTA)(H2O)^−, reference compound]",A/ħ,,−3.7 10^6 rad s^−1
same,ER,,3.85 kcal/mol
same,ΔH^x,,11.9 kcal/mol
same,ΔS*,,+10.5 Jmol^−1K^−1
same,τR^298,,77 ps
same,kex^298,,4.1 10^6 s^−1
O=C([O-])CN1CCN(CC(=O)[O-])CCN(CC(=O)[O-])CC(Cc2ccc([N+](=O)[O-])cc2)CN(CC(=O)[O-])CC1.[Gd+3] [Gd(TRITA-bz-NO2)],water exchange rate Kex^298,,1.8e+08 s⁻¹
same,"In(1/T1r), reduced longitudinal ^17O relaxation rate",T 273.05 K,11.42
same,"In(1/T2r), reduced transverse ^17O relaxation rate",T 273.05 K,13.55
same,"Δwr, reduced ^17O chemical shift",T 273.05 K,−9.34E+05 Hz
same,"In(1/T1r), reduced longitudinal ^17O relaxation rate",T 281.75 K,11.08
same,"In(1/T2r), reduced transverse ^17O relaxation rate",T 281.75 K,13.31
same,"Δwr, reduced ^17O chemical shift",T 281.75 K,−9.23E+05 Hz
same,"In(1/T1r), reduced longitudinal ^17O relaxation rate",T 292.45 K,10.60
same,"In(1/T2r), reduced transverse ^17O relaxation rate",T 292.45 K,12.96
same,"Δwr, reduced ^17O chemical shift",T 292.45 K,−9.15E+05 Hz
same,"In(1/T1r), reduced longitudinal ^17O relaxation rate",T 302.25 K,10.44
same,"In(1/T2r), reduced transverse ^17O relaxation rate",T 302.25 K,12.54
same,"Δwr, reduced ^17O chemical shift",T 302.25 K,−8.72E+05 Hz
same,"In(1/T1r), reduced longitudinal ^17O relaxation rate",T 317.25 K,9.97
same,"In(1/T2r), reduced transverse ^17O relaxation rate",T 317.25 K,12.03
same,"Δwr, reduced ^17O chemical shift",T 317.25 K,−8.28E+05 Hz
same,"In(1/T1r), reduced longitudinal ^17O relaxation rate",T 330.25 K,9.58
same,"In(1/T2r), reduced transverse ^17O relaxation rate",T 330.25 K,11.56
same,"Δwr, reduced ^17O chemical shift",T 330.25 K,−7.07E+05 Hz
same,"In(1/T1r), reduced longitudinal ^17O relaxation rate",T 349.45 K,9.14
same,"In(1/T2r), reduced transverse ^17O relaxation rate",T 349.45 K,11.06
same,"Δwr, reduced ^17O chemical shift",T 349.45 K,−6.13E+05 Hz
same,inner sphere water molecules of the complex,according to the ^17O chemical shifts,1
same,A/ħ,,−3.5 ± 0.2 10^6 rad s^−1
same,ER,,5.57 ± 0.406 kcal/mol
same,ΔH^x,,6.41 ± 0.19 kcal/mol
same,ΔS*,,+3.0 ± 1.0 Jmol^−1K^−1
same,τR^298,,223 ± 20 ps
same,"water exchange rate, times higher than that measured on Gd(DOTA)",relative to Gd(DOTA),over 40 times
same,kex^298,,180 ± 10 10^6 s^−1
